# Measured values taken from PubChem BioAssay AID248 (DTP/NCI, 2004).
# Where “and” joins values, the source holds several entries; their conditions need not be identical. Equal entries are not always repeated. Inconclusive results and toxic doses are left out.
# Tested on: L1210 leukemia ip in BDF1 mice, survival T/C
# Experiment: NCI In Vivo Anticancer Drug Screen. Data for tumor model L1210 Leukemia (intraperitoneal) in B6D2F1 (BDF1) mice
# Conditions: endpoint: mean survival time, higher = longer survival
# How it was run: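 In this screen, tumor-bearing mice given compound are compared to those given vehicle, and their survival values are reported as a treated-to-control quotient.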
# [1] = dose: 50.0 mg/kg/injection, schedule: Q01DX009 (ip), vehicle: saline with Tween-80
# [2] = dose: 100.0 mg/kg/injection, schedule: Q01DX009 (ip), vehicle: saline with Tween-80
# [3] = dose: 200.0 mg/kg/injection, schedule: Q01DX009 (ip), vehicle: saline with Tween-80
# [4] = dose: 50.0 mg/kg/injection, schedule: Q01DX009 (ip), vehicle: saline
# [5] = dose: 100.0 mg/kg/injection, schedule: Q01DX009 (ip), vehicle: saline
# [6] = dose: 100.0 mg/kg/injection, schedule: Q04DX003 (ip), vehicle: saline
# [7] = dose: 100.0 mg/kg/injection, schedule: Q01DX009 (ip), vehicle: Klucel (hydroxypropylcellulose) (HPC)
# [8] = dose: 100.0 mg/kg/injection, schedule: Q04DX003 (ip), vehicle: Klucel (hydroxypropylcellulose) (HPC)
# [9] = dose: 200.0 mg/kg/injection, schedule: Q01DX009 (ip), vehicle: Klucel (hydroxypropylcellulose) (HPC)
# [10] = dose: 200.0 mg/kg/injection, schedule: Q04DX003 (ip), vehicle: Klucel (hydroxypropylcellulose) (HPC)
# [11] = dose: 400.0 mg/kg/injection, schedule: Q01DX009 (ip), vehicle: Klucel (hydroxypropylcellulose) (HPC)
# [12] = dose: 400.0 mg/kg/injection, schedule: Q04DX003 (ip), vehicle: Klucel (hydroxypropylcellulose) (HPC)
# [13] = dose: 200.0 mg/kg/injection, schedule: Q01DX009 (ip), vehicle: saline
# [14] = dose: 200.0 mg/kg/injection, schedule: Q04DX003 (ip), vehicle: saline
# [15] = dose: 100.0 mg/kg/injection, schedule: Q04DX003 (ip), vehicle: saline with Tween-80
# [16] = dose: 100.0 mg/kg/injection, schedule: Q01DX001 (ip), vehicle: other
# [17] = dose: 200.0 mg/kg/injection, schedule: Q01DX001 (ip), vehicle: other
# [18] = dose: 400.0 mg/kg/injection, schedule: Q01DX001 (ip), vehicle: other
# [19] = dose: 200.0 mg/kg/injection, schedule: Q04DX003 (ip), vehicle: saline with Tween-80
# [20] = dose: 400.0 mg/kg/injection, schedule: Q04DX003 (ip), vehicle: saline with Tween-80
# [21] = dose: 400.0 mg/kg/injection, schedule: Q01DX009 (ip), vehicle: saline
# [22] = dose: 400.0 mg/kg/injection, schedule: Q04DX003 (ip), vehicle: saline
# [23] = dose: 100.0 mg/kg/injection, schedule: Q01DX001 (ip), vehicle: carboxymethylcellulose (CMC)
# [24] = dose: 200.0 mg/kg/injection, schedule: Q01DX001 (ip), vehicle: carboxymethylcellulose (CMC)
# [25] = dose: 400.0 mg/kg/injection, schedule: Q01DX001 (ip), vehicle: carboxymethylcellulose (CMC)
smiles,measurement,setting,value
CCCCCCCN=C(N)CSSCC(N)=NCCCCCCC,T/C,"dose: 1.56 mg/kg/injection, schedule: Q04DX002 (ip), vehicle: saline with Tween-80",101 % of control
same,T/C,"dose: 3.13 mg/kg/injection, schedule: Q04DX002 (ip), vehicle: saline with Tween-80",96 % of control
same,T/C,"dose: 6.25 mg/kg/injection, schedule: Q04DX002 (ip), vehicle: saline with Tween-80",108 % of control and 115 % of control
CNC(=O)Nc1ccc(S(=O)(=O)Nc2nc(C)cc(C)n2)cc1,T/C,[1],96 % of control
same,T/C,[2],96 % of control
same,T/C,[3],93 % of control
[N-]=[N+]=NC(c1ccccc1)(c1ccccc1)c1ccccc1,T/C,"dose: 100.0 mg/kg/injection, schedule: Q04DX002 (ip), vehicle: saline with Tween-80",97 % of control
same,T/C,"dose: 200.0 mg/kg/injection, schedule: Q04DX002 (ip), vehicle: saline with Tween-80",97 % of control
same,T/C,"dose: 400.0 mg/kg/injection, schedule: Q04DX002 (ip), vehicle: saline with Tween-80",97 % of control
O=C(Sc1ccccc1)C(Cl)(Cl)Cl,T/C,"dose: 25.0 mg/kg/injection, schedule: Q01DX009 (ip), vehicle: saline",103 % of control
same,T/C,[4],97 % of control
same,T/C,"dose: 50.0 mg/kg/injection, schedule: Q04DX003 (ip), vehicle: saline",97 % of control
same,T/C,"dose: 100.0 mg/kg/injection, schedule: Q01DX001 (ip), vehicle: acetone",101 % of control
same,T/C,[5],95 % of control
same,T/C,[6],94 % of control
same,T/C,"dose: 200.0 mg/kg/injection, schedule: Q01DX001 (ip), vehicle: acetone",95 % of control
CCOC(=O)CCCN(c1ccccc1CC(=O)OCC)S(C)(=O)=O,T/C,[7],103 % of control
same,T/C,[8],102 % of control
same,T/C,[9],94 % of control
same,T/C,[10],112 % of control
same,T/C,[11],97 % of control
same,T/C,[12],100 % of control
COC(C)C(Br)C(=O)O (stereo not given),T/C,[4],98 % of control
same,T/C,[5],95 % of control
same,T/C,[6],88 % of control
same,T/C,[13],90 % of control
same,T/C,[14],90 % of control
S=C(N/N=C/c1ccccn1)N/N=C/c1ccccn1,T/C,"dose: 20.0 mg/kg/injection, schedule: Q01DX009 (ip), vehicle: saline with Tween-80",105 % of control
same,T/C,"dose: 33.0 mg/kg/injection, schedule: Q01DX009 (ip), vehicle: saline with Tween-80",100 % of control
same,T/C,[1],152 % of control
same,T/C,[15],103 % of control
O=C(N/N=C/c1ccc(Cl)cc1)C(O)(c1ccccc1)c1ccccc1,T/C,[2],88 % of control
same,T/C,"dose: 400.0 mg/kg/injection, schedule: Q01DX009 (ip), vehicle: saline with Tween-80",102 % of control
CCOC(=O)N(CC(C)C(=O)OC)C(C)C (stereo not given),T/C,"dose: 100.0 mg/kg/injection, schedule: Q01DX Z (ip), vehicle: saline",100 % of control
same,T/C,"dose: 200.0 mg/kg/injection, schedule: Q01DX Z (ip), vehicle: saline",97 % of control
S=C1NCC2CCc3c(ccc4ccccc34)N12 (stereo not given),T/C,[16],97 % of control
same,T/C,[17],90 % of control
same,T/C,[18],95 % of control
COC1OCC(N=[N+]=[N-])C(OS(C)(=O)=O)C1OS(C)(=O)=O (stereo not given),T/C,[15],94 % of control
same,T/C,[19],90 % of control
same,T/C,[20],92 % of control
Nc1c(-c2ccccc2)nnn1-c1cccc(Cl)c1,T/C,"dose: 25.0 mg/kg/injection, schedule: Q04DX002 (ip), vehicle: gum acacia",95 % of control
same,T/C,"dose: 50.0 mg/kg/injection, schedule: Q04DX002 (ip), vehicle: gum acacia",95 % of control
same,T/C,"dose: 100.0 mg/kg/injection, schedule: Q04DX002 (ip), vehicle: gum acacia",96 % of control and 98 % of control
OCC12CCCCC1CC1(CC2)OCCO1 (stereo not given),T/C,[1],102 % of control
same,T/C,[2],103 % of control
same,T/C,[5],100 % of control
same,T/C,[15],86 % of control
same,T/C,[6],111 % of control
same,T/C,[3],96 % of control
same,T/C,[13],102 % of control
same,T/C,[19],99 % of control
same,T/C,[14],106 % of control
same,T/C,[21],107 % of control
same,T/C,[22],106 % of control
O=C(/C(=N/N=C\c1ccc([N+](=O)[O-])cc1)c1ccccc1)c1ccccc1,T/C,[15],96 % of control
same,T/C,[19],96 % of control
same,T/C,[20],94 % of control
NC(=O)C1C2C=CC(O2)C1C(N)=O (stereo not given),T/C,"dose: 100.0 mg/kg/injection, schedule: Q04DX002 (ip), vehicle: saline",89 % of control
same,T/C,"dose: 200.0 mg/kg/injection, schedule: Q04DX002 (ip), vehicle: saline",92 % of control
O=NO.O=N[O-].O=N[O-].[Co+3].[NH2-].[NH2-].[NH2-].[NH2-],T/C,"dose: 12.0 mg/kg/injection, schedule: Q01DX009 (ip), vehicle: Klucel (hydroxypropylcellulose) (HPC)",100 % of control
same,T/C,"dose: 25.0 mg/kg/injection, schedule: Q01DX009 (ip), vehicle: Klucel (hydroxypropylcellulose) (HPC)",107 % of control
same,T/C,"dose: 25.0 mg/kg/injection, schedule: Q04DX003 (ip), vehicle: Klucel (hydroxypropylcellulose) (HPC)",103 % of control
same,T/C,"dose: 50.0 mg/kg/injection, schedule: Q01DX009 (ip), vehicle: Klucel (hydroxypropylcellulose) (HPC)",102 % of control
same,T/C,"dose: 50.0 mg/kg/injection, schedule: Q04DX003 (ip), vehicle: Klucel (hydroxypropylcellulose) (HPC)",96 % of control
same,T/C,[8],94 % of control and 110 % of control
CCOC(=O)C(O)(C#CC(C)C)C1CCCCC1 (stereo not given),T/C,[16],94 % of control
same,T/C,[17],89 % of control
same,T/C,[18],94 % of control
N#C/C(=C1C=C/C(=N/O)C(Cl)=C/1)c1ccc(Cl)cc1,T/C,"dose: 50.0 mg/kg/injection, schedule: Q01DX001 (ip), vehicle: carboxymethylcellulose (CMC)",96 % of control
same,T/C,[23],98 % of control
same,T/C,[15],103 % of control
same,T/C,[24],93 % of control
same,T/C,[19],97 % of control
same,T/C,[25],91 % of control
same,T/C,[20],97 % of control
O=[N+]([O-])c1ccc2nc(-c3ccccc3)c(-c3ccccc3)nc2c1,T/C,[7],102 % of control
same,T/C,[8],98 % of control
same,T/C,[9],105 % of control
same,T/C,[10],104 % of control
same,T/C,[11],96 % of control
same,T/C,[12],104 % of control
C#CC1(OC(=O)NS(=O)(=O)c2ccc(C)cc2)CCCCC1,T/C,"dose: 100.0 mg/kg/injection, schedule: Q01DX001 (ip), vehicle: saline with Tween-80",97 % of control
same,T/C,[15],103 % of control
same,T/C,"dose: 200.0 mg/kg/injection, schedule: Q01DX001 (ip), vehicle: saline with Tween-80",101 % of control
same,T/C,[19],95 % of control
same,T/C,"dose: 400.0 mg/kg/injection, schedule: Q01DX001 (ip), vehicle: saline with Tween-80",103 % of control
same,T/C,[20],101 % of control
N=Cc1c(O)[nH]c(=O)[nH]c1=O,T/C,[5],95 % of control
same,T/C,[6],97 % of control
same,T/C,[13],90 % of control
same,T/C,[14],93 % of control
same,T/C,[21],91 % of control
same,T/C,[22],95 % of control
CC(C)C(C)/C=C/C(C)C1CCC2C3CCC4CC(O)CCC4(C)C3CCC12C (stereo not given),T/C,"dose: 100.0 mg/kg/injection, schedule: Q01DX001 (ip), vehicle: Klucel (hydroxypropylcellulose) (HPC)",90 % of control
same,T/C,"dose: 200.0 mg/kg/injection, schedule: Q01DX001 (ip), vehicle: Klucel (hydroxypropylcellulose) (HPC)",97 % of control
COC(=O)C1OC1c1ccc(OC)c(OC)c1 (stereo not given),T/C,[23],95 % of control
same,T/C,[24],97 % of control
same,T/C,[25],101 % of control
O=c1c2ccccc2[nH]c2ccc(-n3nnc4ccccc4c3=O)cc12,T/C,"dose: 6.0 mg/kg/injection, schedule: Q04DX003 (ip), vehicle: saline",103 % of control
same,T/C,"dose: 12.0 mg/kg/injection, schedule: Q04DX003 (ip), vehicle: saline",89 % of control
same,T/C,"dose: 25.0 mg/kg/injection, schedule: Q04DX003 (ip), vehicle: saline",94 % of control
O=C(O)c1cccc(S(=O)(=O)O)c1,T/C,"dose: 100.0 mg/kg/injection, schedule: Q01DX001 (ip), vehicle: saline",105 % of control
same,T/C,"dose: 200.0 mg/kg/injection, schedule: Q01DX001 (ip), vehicle: saline",98 % of control
same,T/C,"dose: 400.0 mg/kg/injection, schedule: Q01DX001 (ip), vehicle: saline",102 % of control
